Laboratory results as given in patent US4088653A, “Tetrahydropyridyl derivatives” (Canadian Patents and Developments Limited, priority 1976, dated 1978).
Where two headings read alike, the source gives them in different places.

Key:
carageenan inflamed paw = test: Anti-inflammatory activity, carageenan-inflamed hind paw volume; type: in vivo, Sprague-Dawley rats; details: for Response % animals protected, 3 hours after drug / Response % animals protected, 5 hours after drug: subcutaneous, Sprague-Dawley rats; for Anti-inflammatory activity (in words): rat, in vivo
Method: (§1) Initially the activity of the compound tested on an animal was determined at a single dose. If the substance was active at this dose, it was subjected to limited repeat testing. If the presence of activity was confirmed by repetition of the testing, a dose response relation was constructed and the effective dose (ED50) determined. If toxicity was encountered with the initial dose, the dose was reduced until one was reached which was tolerated by the animals tested.
Substances were administered subcutaneously to Sprague-Dawley rats, weighing 100-120 g. A suspension of 0.03% carageenan was injected under the plantar skin of a hind paw. The increase in volume of the inflamed paw was measured 3 and 5 hours after drug administration.

phenylquinone-writhing = test: Analgesic activity, phenylquinone-writhing test; type: in vivo, Swiss albino mice; details: for Analgesic activity (in words): mouse, in vivo; for ED50: Mus musculus, sc, read-out: Ed50 (analgesic activity)
Method: as §1
The active ingredients were suspended in a solution of physiological saline and "Tween 80" (TM) surfactant. A dose amounting to 10 milliliters of physiological saline solution and active ingredient per kilogram of bodyweight was administered to the mice according to the dosage as set out in Table 2.

blood-glucose = test: Determination of blood-glucose (hyperglycemic activity); type: in vivo, Wistar rats; details: for % change in blood-glucose concentrations: oral, fasted Wistar rats, 4 hours post-treatment; for Hyperglycemic activity (in words): rat, in vivo
Method: as §1
Substances were suspended in distilled water and were administered orally to over-night fasted Wistar rats. […] (Escalab ® G:15) (Barthelmai and Czok, Klinische Wochenschrift 40: 585 (1962)).

[1] = 128 mg/kg, subcutaneous, Swiss albino mice
[2] = 32 mg/kg, subcutaneous, Swiss albino mice
[3] = 64 mg/kg, subcutaneous, Swiss albino mice
[4] = 256 mg/kg, subcutaneous, Swiss albino mice
[5] = subcutaneous, Swiss albino mice, method of Litchfield and Wilcoxon

Structure (SMILES) | Response % animals protected, 3 hours after drug (carageenan inflamed paw; 64 mg/kg) [%] | Response % animals protected, 5 hours after drug (carageenan inflamed paw; 64 mg/kg) [%] | Anti-inflammatory activity (in words) (carageenan inflamed paw) | Response % inhibition (phenylquinone-writhing) (phenylquinone-writhing; [1]) [%] | Analgesic activity (in words) (phenylquinone-writhing) | Hyperglycemic activity (in words) (blood-glucose) | Response % inhibition (phenylquinone-writhing) (phenylquinone-writhing; [2]) [%] | Response % inhibition (phenylquinone-writhing) (phenylquinone-writhing; [3]) [%] | Response % inhibition (phenylquinone-writhing) (phenylquinone-writhing; [4]) [%] | ED50 (phenylquinone-writhing; [5]) [mg/kg] | also measured
O=C(NN1CC=C(CCCO)CC1)c1ccncc1 [Compound A-23, N-(4-pyridylcarbonylimino)-4-(3^1-hydroxypropyl)-1,2,5,6-tetrahydropyridine] | 25 | 75 | striking anti-inflammatory action | 11 | – | – | – | – | – | – | Anti-inflammatory activity (in words) (carageenan inflamed paw; listed as A23): anti-inflammatory
O=C(NN1CCC=C(CCCO)C1)c1ccccc1 [Compound A-21, N-(benzoylimino)-3-(3^1-hydroxypropyl)-1,2,5,6-tetrahydropyridine] | – | – | – | 20 | analgesic (slight) | – | – | – | – | – | –
O=C(NN1CC=CCC1)c1ccccn1 [Compound A-19, N-(2-pyridylcarbonylimino)-1,2,5,6-tetrahydropyridine] | 25 | 75 | striking anti-inflammatory action | 57.3 | active analgesics | demonstrated hyperglycemic activity | – | – | – | – | Anti-inflammatory activity (in words) (carageenan inflamed paw; listed as A19): anti-inflammatory; Analgesic activity (in words) (phenylquinone-writhing; listed as A19): analgesic; % change in blood-glucose concentrations (blood-glucose; 100 mg/kg): +50%; % change in blood-glucose concentrations (blood-glucose; 200 mg/kg): +50%; Hyperglycemic activity (in words) (blood-glucose; listed as A19): hyper-
COc1ccc2c(c1)c(CC(=O)O)c(C)n2C(=O)c1ccc(Cl)cc1 [Indomethazine (TM), reference compound] | – | – | – | – | – | – | – | – | – | – | Response % animals protected, 3 hours after drug (carageenan inflamed paw; 12 mg/kg): 50%; Response % animals protected, 5 hours after drug (carageenan inflamed paw; 12 mg/kg): 50%
O=C(NN1CC=CCC1)c1cccnc1 [Compound A-14, N-(3-pyridylcarbonylimino)-1,2,5,6-tetrahydropyridine] | 50 | 0 | – | 81.2 | active analgesics | demonstrated hyperglycemic activity | 38.9 | 59.2 | 89.6 | 47 | Analgesic activity (in words) (phenylquinone-writhing; listed as A14): analgesic; Hyperglycemic activity (in words) (blood-glucose; listed as A14): hyper-
O=C(NN1CC=CCC1)c1ccncc1 [Compound A-13, N-(4-pyridylcarbonylimino)-1,2,5,6-tetrahydropyridine] | 25 | 75 | striking anti-inflammatory action | 80.8 | active analgesics | demonstrated hyperglycemic activity | 38.6 | 58.0 | 96.0 | 53 | Anti-inflammatory activity (in words) (carageenan inflamed paw; listed as A13): anti-inflammatory; Analgesic activity (in words) (phenylquinone-writhing; listed as A13): analgesic; Hyperglycemic activity (in words) (blood-glucose; listed as A13): hyper-
O=C(NN1CCC=C(CCCO)C1)c1ccncc1 [Compound A-22, N-(4-pyridylcarbonylimino)-3-(3^1-hydroxypropyl)-1,2,5,6-tetrahydropyridine] | – | – | – | 43 | analgesic (slight) | – | – | – | – | – | –
CC(=O)Oc1ccccc1C(=O)O [Aspirin (TM), reference compound] | – | – | – | – | – | – | – | – | – | – | ED50 (phenylquinone-writhing): 52 mg/kg
O=C(NN1CC=CCC1)c1ccccc1 [Compound A-20, N-(benzoylimino)-1,2,5,6-tetrahydropyridine] | 25 | 50 | – | 88.2 | active analgesics | – | 57.4 | 59.0 | 98.0 | 36 | Response % inhibition (phenylquinone-writhing) (phenylquinone-writhing; 16 mg/kg, subcutaneous, Swiss albino mice): 26.2%; Analgesic activity (in words) (phenylquinone-writhing; listed as A20): analgesic
